Test results reported in US7579344B2, “Pyrimidine derivatives possessing cell-cycle inhibitors activity” (Astrazeneca AB, priority 2003, dated 2009).

Each compound was assayed against T1, CDK2/Cyclin E (Homo sapiens, UniProt P24941) (assay: in vitro kinase Scintillation Proximity Assay, incorporation of [γ-33-P]-ATP into GST-Rb). Conditions: GST-Rb substrate, 0.2 μM ATP, 60 minutes at room temperature.
T1 construct: The open reading frames of CDK2 and Cyclin E were isolated; made in house; host or cells: Sf21 (Spodoptera frugiperda) insect cells, baculovirus co-infection; the GST-Rb substrate was made in E. coli BL21 (DE3) pLysS
Type: biochemical
Procedure: The compounds were tested in an in vitro kinase assay in 96 well format using Scintillation Proximity Assay (SPA - obtained from Amersham) for measuring incorporation of [γ-33-P]-Adenosine Triphosphate into a test substrate (GST-Retinoblastoma protein; GST-Rb). In each well was placed the compound to be tested (diluted in DMSO and water to correct concentrations) and in control wells either roscovitine as an inhibitor control or DMSO as a positive control.
Approximately 0.2 μl of CDK2/Cyclin E partially-purified enzyme (amount dependent on enzyme activity) diluted in 25 μl incubation buffer was added to each well then 20 μl of GST-Rb/ATP/ATP33 mixture (containing 0.5 μg GST-Rb and 0.2 μM ATP and 0.14 μCi [γ-33-P]-Adenosine Triphosphate in incubation buffer), and the resulting mixture shaken gently, then incubated at room temperature for 60 minutes.
To each well was then added 150 μL stop solution containing (0.8 mg/well of Protein A-PVT SPA bead (Amersham)), 20 pM/well of Anti-Glutathione Transferase, Rabbit IgG (obtained from Molecular Probes), 61 mM EDTA and 50 mM HEPES pH 7.5 containing 0.05% sodium azide.
The plates were sealed with Topseal-S plate sealers, left for two hours then spun at 2500 rpm, 1124 xg., for 5 minutes. The plates were read on a Topcount for 30 seconds per well.
The incubation buffer used to dilute the enzyme and substrate mixes contained 50 mM HEPES pH7.5, 10 mM MnCl2, 1 mM DTT, 100 μM Sodium vanadate, 100 μM NaF, 10 mM Sodium Glycerophosphate, BSA (1 mg/ml final).
In this assay only part of the retinoblastoma protein (Science 1987 Mar. 13;235(4794):1394-1399; Lee W. H., Bookstein R., Hong F., Young L. J., Shew J. Y., Lee E. Y.) was used, fused to a GST tag. […]
The open reading frames of CDK2 and Cyclin E were isolated by reverse transcriptase-PCR using HeLa cell and activated T cell mRNA as a template and cloned into the insect expression vector pVL1393 (obtained from Invitrogen 1995 catalogue number: V1392-20). […]

Structure (SMILES)	IC50
COCCNS(=O)(=O)c1ccc(Nc2nccc(-c3cnc4n3CCOC4)n2)cc1 [Example 9]	13 nM
c1ccc(Nc2nccc(-c3cnc4n3CCOC4)n2)cc1 [Example 5, 2-Anilino-4-(5,6-dihydro-8H-imidazo[2,1-c][1,4]oxazin-3-yl)pyrimidine]	42 nM
c1ccc(Nc2nccc(-c3cnc4n3CCCC4)n2)cc1 [Example 2, 2-anilino-4-(5,6,7,8-tetrahydroimidazo[1,2-a]pyridin-3-yl)pyrimidine]	21 nM
